Experimental findings from ChEMBL document CHEMBL1135452, “Side-chain homologation of nodulisporic acid: synthesis of potent new dienyl derivatives” (Bioorg Med Chem Lett, 2002) are described below.

The assay concerns Pulicinae. Kind of assay: In vitro systemic flea efficacy using membrane feeding assay. The format is functional.
`C=CC/C(=C\C=C\[C@]1(C)[C@@H](O)CC[C@@]2(C)[C@H]1CCC1Cc3c(n4c5c(c6c(cc35)C3=CC(C)(C)OC(C)(C)C3[C@@H]6O)C(=O)[C@@H]4C(=C)C)[C@@]12C)C(=O)NC(C)(C)C` (stereo not given in full) displayed an Activity of 10 p.p.m.

Take `C=C(C)[C@H]1C(=O)c2c3c(cc4c5c(n1c24)[C@@]1(C)C(CC[C@H]2[C@](C)(/C=C/C=C(\CCC)C(=O)O)[C@@H](O)CC[C@@]21C)C5)C1=CC(C)(C)OC(C)(C)C1[C@@H]3O` (stereo not given in full): the Activity was more than 10 p.p.m.

Compound `C=C(C)[C@H]1C(=O)c2c3c(cc4c5c(n1c24)[C@@]1(C)C(CC[C@H]2[C@](C)(/C=C/C=C(\CC)C(=O)N(C)C)[C@@H](O)CC[C@@]21C)C5)C1=CC(C)(C)OC(C)(C)C1[C@@H]3O` (stereo not given in full) showed an Activity of 1 p.p.m.

Regarding `C=C(C)[C@H]1C(=O)c2c3c(cc4c5c(n1c24)[C@@]1(C)C(CC[C@H]2[C@](C)(/C=C/C=C/C(=O)N4CCCC4)[C@@H](O)CC[C@@]21C)C5)C1=CC(C)(C)OC(C)(C)C1[C@@H]3O` (stereo not given in full), the Activity is 1 p.p.m.

Take `C=C(C)[C@H]1C(=O)c2c3c(cc4c5c(n1c24)[C@@]1(C)C(CC[C@H]2[C@](C)(/C=C/C=C(\CCC)C(=O)NC(C)(C)C)[C@@H](O)CC[C@@]21C)C5)C1=CC(C)(C)OC(C)(C)C1[C@@H]3O` (stereo not given in full): the Activity is 10 p.p.m.

On to `C=CC/C(=C\C=C\[C@]1(C)[C@@H](O)CC[C@@]2(C)[C@H]1CCC1Cc3c(n4c5c(c6c(cc35)C3=CC(C)(C)OC(C)(C)C3[C@@H]6O)C(=O)[C@@H]4C(=C)C)[C@@]12C)C(N)=O` (stereo not given in full), for which the Activity was 1 p.p.m.

The compound `C=C(C)[C@H]1C(=O)c2c3c(cc4c5c(n1c24)[C@@]1(C)C(CC[C@H]2[C@](C)(/C=C/C=C(\CC)C(=O)O)[C@@H](O)CC[C@@]21C)C5)C1=CC(C)(C)OC(C)(C)C1[C@@H]3O` (stereo not given in full) came in with an Activity of 10 p.p.m.

On to `C=C(C)[C@H]1C(=O)c2c3c(cc4c5c(n1c24)[C@@]1(C)C(CC[C@H]2[C@](C)(/C=C/C=C(\OC)C(N)=O)[C@@H](O)CC[C@@]21C)C5)C1=CC(C)(C)OC(C)(C)C1[C@@H]3O` (stereo not given in full), for which the Activity is 10 p.p.m.

`C=C(C)[C@H]1C(=O)c2c3c(cc4c5c(n1c24)[C@@]1(C)C(CC[C@H]2[C@](C)(/C=C/C=C/P(=O)(OCC)OCC)[C@@H](O)CC[C@@]21C)C5)C1=CC(C)(C)OC(C)(C)C1[C@@H]3O` (stereo not given in full) came in with an Activity of 10 p.p.m.

Consider `C=C(C)[C@H]1C(=O)c2c3c(cc4c5c(n1c24)[C@@]1(C)C(CC[C@H]2[C@](C)(/C=C/C(C)=C/C(=O)NCC)[C@@H](O)CC[C@@]21C)C5)C1=CC(C)(C)OC(C)(C)C1[C@@H]3O` (stereo not given in full), for which the Activity turned out to be 10 p.p.m.
